Assay results reported in patent EP0951284B1, “[…] DERIVATIVES” (priority 1996, dated 1998).
Structures can show the parent of a compound that is named as a salt. Where two headings read alike, the source gives them in different places.

Legend:
[1] = target: T1, whole brain AChE (Mus musculus, UniProt P21836); assay: Ex vivo measurement of brain AChE inhibition after sub-cutaneous administration; format: in vivo, mice; conditions: for ED50: sc, sub-cutaneous, mouse whole brain, at peak of activity, read-out: AChE Inhibition Ex vivo ED50 (AC)
T1 construct: the brains rapidly removed (minus cerebellum), weighed and homogenized in 0.1M phosphate buffer pH 8.0; from tissue; host or cells: mouse brain (minus cerebellum) homogenate supernatant
T1 sequence (P21836 32-614): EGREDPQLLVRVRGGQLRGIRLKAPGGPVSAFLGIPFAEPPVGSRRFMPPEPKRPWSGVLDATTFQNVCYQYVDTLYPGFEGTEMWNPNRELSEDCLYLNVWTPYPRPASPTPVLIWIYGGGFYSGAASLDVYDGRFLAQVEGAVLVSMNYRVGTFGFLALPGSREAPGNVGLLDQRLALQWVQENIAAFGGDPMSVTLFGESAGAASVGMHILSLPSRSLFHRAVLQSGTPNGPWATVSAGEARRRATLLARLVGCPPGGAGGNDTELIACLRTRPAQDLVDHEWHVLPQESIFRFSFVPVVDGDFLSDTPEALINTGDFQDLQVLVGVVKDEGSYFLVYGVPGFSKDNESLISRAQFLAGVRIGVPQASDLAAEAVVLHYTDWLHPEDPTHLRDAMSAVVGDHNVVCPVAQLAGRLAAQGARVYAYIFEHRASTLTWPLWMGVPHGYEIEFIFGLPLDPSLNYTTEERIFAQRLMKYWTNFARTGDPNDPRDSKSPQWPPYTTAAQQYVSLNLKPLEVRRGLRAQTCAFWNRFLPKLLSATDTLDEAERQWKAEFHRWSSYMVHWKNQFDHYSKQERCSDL
Procedure: Test drugs or saline were administered sub-cutaneously to male mice (Sabra strain, 28-35g). At least 4-5 mice were used per dose and a minimum of 3 doses per drug were tested. The mice were sacrificed 15, 30, 60, 70, 90, 120 or 180 minutes after drug administration, the brains rapidly removed (minus cerebellum), weighed and homogenized in 0.1M phosphate buffer pH 8.0, containing Triton (1mg/100g tissue) and centrifuged to remove cell debris. Aliquots (25 µl) of the supernatant were then incubated with acetylthiocholine and DTNB. AChE activity measured as described above. The % inhibition of whole brain AChE by each dose of drug was calculated by comparison with enzyme activity from 3 saline treated control mice run at the same time.

[2] = target: T2, Human erythrocyte acetylcholinesterase (Homo sapiens, UniProt P22303); assay: In vitro measurement of acetylcholinesterase (AChE) inhibition (Ellman method); format: biochemical; conditions: at time of peak activity, incubation 15 to 60 minutes at 37°C
T2 construct: Human erythrocyte acetylcholinesterase (type XIII, Sigma Israel); purchased Sigma Israel type XIII; host or cells: human erythrocytes
T2 sequence (P22303 32-617 isoform P22303-2 limits assumed): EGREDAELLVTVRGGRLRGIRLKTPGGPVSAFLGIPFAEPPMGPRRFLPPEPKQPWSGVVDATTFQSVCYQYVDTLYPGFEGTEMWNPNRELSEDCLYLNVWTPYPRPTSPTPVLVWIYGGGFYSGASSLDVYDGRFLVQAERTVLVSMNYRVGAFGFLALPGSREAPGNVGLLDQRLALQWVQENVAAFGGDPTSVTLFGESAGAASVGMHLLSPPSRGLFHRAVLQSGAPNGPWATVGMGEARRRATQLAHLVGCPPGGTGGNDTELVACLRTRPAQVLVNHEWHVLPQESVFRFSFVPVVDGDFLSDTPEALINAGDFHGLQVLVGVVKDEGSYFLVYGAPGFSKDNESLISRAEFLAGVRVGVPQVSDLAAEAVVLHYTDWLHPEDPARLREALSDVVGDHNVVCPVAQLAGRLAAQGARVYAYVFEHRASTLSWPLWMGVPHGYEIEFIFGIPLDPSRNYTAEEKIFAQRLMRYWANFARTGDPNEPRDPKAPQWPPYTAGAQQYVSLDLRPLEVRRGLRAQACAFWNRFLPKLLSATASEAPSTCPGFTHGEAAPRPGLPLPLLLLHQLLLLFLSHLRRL
Procedure: Human erythrocyte acetylcholinesterase (type XIII, Sigma Israel), was prepared in a stock solution of 1U/ml, containing Triton (1%) and bovine serum albumin (0.05%) in phosphate buffer (pH 8). The enzyme (0.05U) was incubated with 3-5 different concentrations of test compound (in triplicate) for periods of from 15 to 60 minutes at 37°C. […] The percentage inhibition of AChE by each concentration of drug is calculated by comparison with that of enzyme in the absence of drug.

[3] = Acute toxicity in mice (sub-cutaneous, lethality within 6 hours); conditions: mouse, in vivo, sc; for selectivity ratio: LD50 divided by ED50 (acetylcholine esterase ex vivo), read-out: Therapeutic Ratio (LD/AC); for LD50 at 6 h: sub-cutaneous, mice, within 6 hours
Procedure: Drugs were administered sub-cutaneously in at least 3 doses, to a minimum of 10 mice per dose. […] Therapeutic Ratio was calculated as LD50 divided by ED50(acetylcholine esterase ex vivo).

[4] = target: T3, MAO-A (Rattus norvegicus, UniProt P21396); assay: Inhibition of MAO activity in vitro, rat brain homogenate, 5-HT substrate
T3 sequence (P21396 1-526): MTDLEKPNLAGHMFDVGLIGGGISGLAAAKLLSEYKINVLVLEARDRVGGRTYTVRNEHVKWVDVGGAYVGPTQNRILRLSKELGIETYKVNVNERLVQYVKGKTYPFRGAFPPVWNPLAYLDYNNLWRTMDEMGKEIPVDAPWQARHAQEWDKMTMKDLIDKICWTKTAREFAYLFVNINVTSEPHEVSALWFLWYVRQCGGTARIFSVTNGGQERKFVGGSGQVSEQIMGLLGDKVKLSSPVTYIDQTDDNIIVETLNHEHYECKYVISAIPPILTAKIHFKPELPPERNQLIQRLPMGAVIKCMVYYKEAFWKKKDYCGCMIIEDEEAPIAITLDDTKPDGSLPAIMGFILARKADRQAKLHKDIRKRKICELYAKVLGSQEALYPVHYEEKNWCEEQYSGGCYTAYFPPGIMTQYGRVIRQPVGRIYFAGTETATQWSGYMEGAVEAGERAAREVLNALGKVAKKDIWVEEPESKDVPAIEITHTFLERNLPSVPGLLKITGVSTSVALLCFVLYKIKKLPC
Procedure: The MAO enzyme source was a homogenate of rat brain in 0.3M sucrose, which was centrifuged at 600G for 15 minutes. The supernatant was diluted appropriately in 0.05M phosphate buffer, and pre-incubated with serial dilutions of test compounds for 20 minutes at 37°C. ^14C-Labeled substrates (2-phenylethylamine, hereinafter PEA; 5-hydroxytryptamine, hereinafter 5-HT) were then added, and the incubation continued for a further 20 minutes (PEA), or 30-45 minutes (5-HT). Substrate concentrations used were 50µM (PEA) and 1mM (5-HT). In the case of PEA, enzyme concentration was chosen so that not more than 10% of the substrate was metabolized during the course of the reaction. The deaminated products were extracted into toluene-ethyl acetate (1:1, v/v) containing 0.6% (w/v) 2,5-diphenyloxazole prior to determination by liquid scintillation counting. Radioactivity in the eluate indicates the production of neutral and acidic metabolites formed as a result of MAO activity. Activity of MAO in the sample was expressed as a percentage of control activity in the absence of inhibitors after subtraction of appropriate blank values The activity determined using PEA as substrate is referred to as MAO-B, and that determined using 5-HT as MAO-A.

[5] = system: MAO-A; assay: Inhibition of MAO activity ex vivo (brain tissue), 5-HT substrate; format: in vivo, mice; conditions: mouse brain tissue
Procedure: (§1) Male Sabra mice, weighing 45-50g were injected with test compound solutions (prepared in 0.9% saline). Each dose was administered to two or three mice. The mice were sacrificed two hours after drug administration or at a time corresponding to the peak AChE inhibition time (see Table 6). The brain and liver were rapidly dissected and stored in appropriate vials on ice. The tissues were weighed, diluted to 1/20 in sucrose 0.3M and stored at -20°C before performance of the MAO assay described above. The results given in Table 6 relate to measurements made on brain tissue only.

[6] = system: MAO-B; assay: Inhibition of MAO activity ex vivo (brain tissue), PEA substrate; format: in vivo, mice; conditions: mouse brain tissue
Procedure: as §1

[7] = system: mice; assay: Survival time of mice in hypobaric hypoxic episode; format: in vivo
Description: The model is based on that described in Nakanishi, M. et al. Life Sci. (1973) 13: 467; Oshiro, et al., J. Med. Chem. (1991) 34: 2004-2013; and US Patent 4,788,130.
A 12 liter desiccator (desiccator A) and a 2.5 liter desiccator (desiccator B) were separately connected to a vacuum pump. Desiccator B was disconnected and allowed to equilibrate with room air whilst desiccator A was evacuated to a pressure of 100mmHg. Four male ICR albino mice (22-28g) were placed in desiccator B. Desiccator B was then closed to room air and connected to desiccator A. The pressure inside desiccator B was monitored using a mercury manometer and at the point the pressure in desiccator B reached 200mmHg (usually within 14 seconds), the two desiccators were disconnected from the vacuum pump and the pump switched off. The survival time from the moment of induction of hypoxia to the time of cessation of respiration was recorded. for each mouse for a maximum of 15 minutes after which time room air was reintroduced to desiccator B. Survivors were monitored for signs of lethargy or vitality.
Effect of drug treatment was assessed as the percent of the survival time of the drug treated group with respect to the saline injected or vehicle injected control group. Control groups were run twice, before and after each experimental group and consisted of 8 mice in groups of 4 mice to ensure a constant residual volume of oxygen in all tests. The effect of each dose of test drug was determined in duplicate i.e. two groups of 4 mice.
Positive reference drugs were sodium pentobarbital at a dose of 40 mg/kg, and diazepam 10 mg/kg given 0.5h prior to hypoxia, physostigmine 0.2 and 0.4 mg/kg and neostigmine 0.2 mg/kg given sc 30 min before hypoxia. Methyl atropine 1 mg/kg was given sc. 10 min. before physostigmine.
The volume of injection was 0.2-0.3 mL per mouse (10 mL/kg). The initial dose was about one third of the reported LD50 for acetylcholine esterase inhibition. If no protection could be obtained, the dose was further increased to the nearest non-toxic dose. In case of protection, the dose was further reduced in an attempt to locate the "protective" dose range.

Row | Structure (SMILES) | ED50 [1] | IC50 [2] | LD50 at 6 h [3] | IC50 [4] | MAO-A Inhibition Ex vivo ED50 [5] | MAO-B Inhibition Ex vivo ED50 [6] | further results
1 | C#CCN(C)[C@@H](C)Cc1cccc(OC(=O)N(C)CCCCCC)c1 [Compound 38, (S)-3-(N-methyl, N-hexyl-carbamyloxy)-α-methyl-N'-methyl,N'-propargyl phenethylamine ethanesulfonate] | > 50 µmol/kg | 3.1 µM | – | – | – | – | –
2 | CNCCc1cccc(OC(=O)N(C)C)c1 [Compound 3] | 39.2 µmol/kg | 0.31 µM | 57.7 µmol/kg | 50 µM | – | – | Time to peak activity t ([1]; AChE inhibition): 10 min; Time to return to 50% of peak t ([1]; AChE inhibition): 30 min; selectivity ratio [3]: 1.5
3 | CN(C)C(=O)Oc1cccc(CCN)c1 [Compound 1] | – | 0.31 µM | – | 100 µM | – | – | –
4 | CN(C)CCc1cccc(OC(=O)N(C)C)c1 [Compound 10] | 2 µmol/kg | 0.2 µM | 16 µmol/kg | – | – | – | Time to peak activity t ([1]; AChE inhibition): 15 to 30 min; selectivity ratio [3]: 8; IC50 ([4]; read-out: MAO-A Inhibition In vitro IC50, rat brain homogenate, 5-HT 1mM): 51 µM
5 | C#CC(C)NCCc1cccc(OC(=O)N(C)C)c1 (centres unmarked) [Compound 29] | 2.5 µmol/kg | 0.15 µM | – | – | >>12.5 µmoles/kg | >>12.5 µmoles/kg | –
6 | C#CCNC(C)Cc1cccc(OC(=O)N(C)C2CCCCC2)c1 (centres unmarked) [Compound 36] | > 50 µmol/kg | 3.4 µM | – | – | – | – | –
7 | C#CCN(C)C(C)Cc1cccc(OC(=O)N(C)CCCCCC)c1 (racemic) [Compound 27, (rac)-3-(N-methyl,N-hexyl-carbamyloxy)-α-methyl-N'-methyl, N'-propargyl phenethylamine mesylate] | > 50 µmol/kg | 3.1 µM | > 1000 µmol/kg | 20 µM | >430 µmol/kg | 3.4 µmol/kg | –
8 | C#CCNC(C)Cc1cccc(OC(=O)N(C)CCC)c1 (racemic) [Compound 19, (rac)-3-(N-methyl,N-propyl-carbamyloxy)-α-methyl-N'-propargyl phenethylamine HCl] | 170 µmol/kg | 20 µM | 1300 µmol/kg | 14.6 µM | >70 µmol/kg | 1.5 µmol/kg | Time to peak activity t ([1]; AChE inhibition): 30 to 60 min; selectivity ratio [3]: 7.6; Protection (% of control) ([7]; 25 mg/kg sc, 60 min before hypoxia): 169±50 % of control; Protection (% of control) ([7]; 50 mg/kg sc, 60 min before hypoxia): 309±253 % of control; Protection (% of control) ([7]; 75 mg/kg sc, 60 min before hypoxia): 773±228 % of control
9 | CN1C(=O)CN=C(c2ccccc2)c2cc(Cl)ccc21 [Diazepam, diazepam, reference compound] | – | – | – | – | – | – | Protection (% of control) ([7]; 10 mg/kg, 30 min before hypoxia): 316±78 % of control
10 | C#CCN(C)C(C)Cc1cccc(OC(=O)N(C)CCC)c1 (racemic) [Compound 35] | > 200 µmol/kg | 50 µM | – | – | – | – | –
11 | C#CC(C)NCCc1cccc(OC(=O)N(C)CC)c1 (centres unmarked) [Compound 30] | 45 µmol/kg | 14 µM | – | – | >>270 µmoles/kg | >>270 µmoles/kg | –
12 | C#CCN(C)C(C)Cc1cccc(OC(=O)N(C)C2CCCCC2)c1 (racemic) [Compound 28, (rac)-3-(N-methyl,N-cyclohexyl-carbamyloxy)-α-methyl-N'-methyl, N'-propargyl phenethylamine HCl] | 21 µmol/kg | 11.5 µM | 2000 µmol/kg | 1.7 µM | 109 µmol/kg | 1.75 µmol/kg | Time to peak activity t ([1]; AChE inhibition): 60 min; selectivity ratio [3]: > 47
13 | CCN(C)C(=O)Oc1cccc(CCNC)c1 [Compound 5] | – | 20.8 µM | – | 25 µM | >>160 µmoles/kg | >>160 µmoles/kg | –
14 | CCCC(C)C1(CC)C(=O)NC(=O)NC1=O (centres unmarked) [Nembutal, sodium pentobarbital, reference compound] | – | – | – | – | – | – | Protection (% of control) ([7]; 40 mg/kg, 30 min before hypoxia): 253±200 % of control
15 | CCN(C)C(=O)Oc1cccc(CCN)c1 [Compound 4] | – | 48.4 µM | – | 200 µM | – | – | –
